Laboratory results from paper PMC4948780, “PARP Inhibitors in Clinical Use Induce Genomic Instability in Normal Human Cells” (PLoS ONE, 2016).
pIC50: −log10 of the molar value.

Columns and labels:
EBV-BL = test: Survival, trypan blue exclusion test of cell viability; assay type: cell-based, human
Excerpt: (§1) Human mammary epithelial cell lines used included non-tumorigenic diploid MCF-10A, HMEC-hTERT and tumorigenic MDA-MB-468 (basal) and MCF-7 (luminal). […] Blood samples were obtained from normal donor participants. The participants provided written informed consent to IRB protocol #95–054 approved by the Institutional Review Board at MSKCC. The original signed consent is then sent to the research participant’s medical record and a copy of the consent is given to the participant. The EBV-transformed B-lymphocyte cell line (EBV-BL) was generated by transformation of peripheral blood mononuclear cells (PBMC) with the B95.8 strain of EBV, as previously described. Primary T cells were generated from PBMC from two normal donors by non-specific activation with phytohemagglutinin and cultured in RPMI1640 and human serum AB for 4–14 days before use. E14 mES cell line was provided by M. Hooper, Brca1^-/- 236.44 mES cell line was provided by B. H. Koller, Brca2^lex1/lex2 mES cell line was provided by P. Hasty and Lexicon Genetics. E14 wild-type, Brca1^-/- 236.44, and Brca2^lex1/lex2 mES cell lines were cultured in standard ES media. Brca1^-/- 236.44 cells express a BRCA1 peptide deleted for sequences encoded by exon 11 [52], while Brca2^lex1/lex2 cells express a BRCA2 peptide deleted for the terminal exon 27 [53]. […] Veliparib and BSI-201 were purchased from Chemie Tek. The compounds were dissolved in DMSO and PBS. For clonogenic survival assays, MCF-10A (1000 cells), HMEC-hTERT (1000 cells), MDA-MB-468 (1500 cells) and mouse ES cell (2000 cells) were seeded, vehicle control or inhibitors were added at the indicated concentration 24 hours after seeding and changed every three days for continuous treatment. At 7–14 days, colonies were fixed with methanol and stained with Giemsa. For EBV-BL (6 × 10^6) and primary T cells (3.6 × 10^6) were continuously exposed to the indicated concentration of drug for 10 days at 0.6 × 10^6 cells/ml. Viable cells were scored by trypan blue exclusion.

primary T cell 2 = test: as above; assay type: cell-based; settings: Homo sapiens, read-out: IC50 of olaparib, continuous exposure
Excerpt: (§2) Human mammary epithelial cell lines used included non-tumorigenic diploid MCF-10A, HMEC-hTERT and tumorigenic MDA-MB-468 (basal) and MCF-7 (luminal). […] Blood samples were obtained from normal donor participants. The participants provided written informed consent to IRB protocol #95–054 approved by the Institutional Review Board at MSKCC. The original signed consent is then sent to the research participant’s medical record and a copy of the consent is given to the participant. The EBV-transformed B-lymphocyte cell line (EBV-BL) was generated by transformation of peripheral blood mononuclear cells (PBMC) with the B95.8 strain of EBV, as previously described. Primary T cells were generated from PBMC from two normal donors by non-specific activation with phytohemagglutinin and cultured in RPMI1640 and human serum AB for 4–14 days before use. E14 mES cell line was provided by M. Hooper, Brca1^-/- 236.44 mES cell line was provided by B. H. Koller, Brca2^lex1/lex2 mES cell line was provided by P. Hasty and Lexicon Genetics. E14 wild-type, Brca1^-/- 236.44, and Brca2^lex1/lex2 mES cell lines were cultured in standard ES media. Brca1^-/- 236.44 cells express a BRCA1 peptide deleted for sequences encoded by exon 11 [52], while Brca2^lex1/lex2 cells express a BRCA2 peptide deleted for the terminal exon 27 [53]. […] Viable cells were scored by trypan blue exclusion.

WT E14 mES cells = test: Clonogenic survival assay, mES cells; assay type: cell-based; settings: Mus musculus, read-out: IC50 (clonogenic survival)
Excerpt: as §1

[1] = tested on: repair-proficient human cells; test: SCE assay, summary over the human cell types; assay type: cell-based; settings: primary T cells; brief exposure
Excerpt: as §2, with “media.” for “media. Brca1^-/- 236.44 cells express a BRCA1 peptide deleted for sequences encoded by exon 11 [52], while Brca2^lex1/lex2 cells express a BRCA2 peptide deleted for the terminal exon 27 [53].”
To prepare metaphase spreads, exponentially growing cells were treated with 0.1–0.3 μg/ml of colcemid for 1–6 hr. […] To visualize SCEs, the doubling time for each cell type was determined. […]

[2] = patients on the olaparib-treated arm, prior cytotoxic chemotherapy; cited from earlier work

In the case of `O=C(c1cc(Cc2n[nH]c(=O)c3ccccc23)ccc1F)N1CCN(C(=O)C2CC2)CC1` [olaparib], the “survival (mean ± SD)” value (EBV-BL; EBV-BL, 1 μM) was 92.6 ± 7.4%, the pIC50 (EBV-BL; Homo sapiens, 240 h, read-out: IC50 (cell survival), EBV-BL, continuous exposure 10 days, trypan blue exclusion) was 5.44 and the pIC50 (primary T cell 2) was 5.57. The pIC50 (WT E14 mES cells) was 6.22, the “average SCEs per metaphase” value [1] was ~ 40 and the “incidence of myelodysplastic syndrome and acute myelogenous leukemia” value [2] was 2.2%.
